Measured values: US4859664A, “Derivatives of 2,3,4,5,6,7-hexahydro-2,7-methano-1,5-benzoxazonines and -1,4-benzoxazonines, processes for their production and their use as pharmaceuticals” (priority 1986, dated 1989)
Where a name gives a salt, the structure may show the parent alone. Read-outs that look alike come from different tables or passages of the source.

Experiments:
[1] = influencing of hexobarbital narcosis; assay type: in vivo, male NMRI mice
Description: (§1) […]. They were given a standard feed and water ad libitum up to the commencement of the experiments.
(§2) The test compounds were administered in a volume of 10 ml./kg./body weight per mouse. As carrier, there was used physiological sodium chloride solution or a suspension of 0.5% tragacanth in physiological sodium chloride solution.
(§3) The experimental results are given as average values with a mean error of the average value (x±S.E.M.). The ED50 values were calculated according to Litchfield and Wilcoxon (J. Pharmacol. Exp. Ther., 96, 99/1949). The compounds were thereby tested in 4 dosages (p≤0.5).
4. Influencing of hexobarbital narcosis.
The test compounds were administered subcutaneously to 5 animals per dosage group. After 30 minutes, 100 mg./kg. hexobarbital sodium was administered intraperitoneally. 2 to 3 minutes after this injection, the animals allowed themselves to be laid on their backs. For each animal, there was measured the time in minutes from the commencement of the back position up to the time when the animals themselves twice successively again assumed the abdominal position.

[2] = assay type: in vivo, male NMRI mice; details: given without sign
Description: They were given a standard feed and water ad libitum up to the commencement of the experiments.
as §2, §3
(§4) For the significance calculation, there was used Student's t test (see Angewandte Statistik, pub. Stringer Verlag, Berlin, Heidelberg, 242/1983), as well as the range sum test of Mann and Withney (Ann. Math. stat., 50, 1818/1947).
(§5) 1.1. In the acetic acid writhing test (see R. Koster et al., Fed. proc., 18, 412/1954), the typical stretching movements referred to as "writhing", were produced by the intraperitoneal administration of a 0.6% acetic acid solution. 30 minutes previously, the substance to be tested was administered subcutaneously (s.c.) or orally ([…].) to the animals. 3 minutes after administration of the acetic acid solution, the total number of stretching movements in a period of time of 10 minutes was ascertained. From the decrease of the stretching reactions due to the action of the test compound in comparison with non-pretreated control groups, there was determined the percentage inhibition action.
Naloxone-antagonistic action in the writhing test.
20 Minutes before the subcutaneous administration of the test compounds, the animals were given 20 mg./kg. naloxone hydrochloride subcutaneously. The further carrying out of the experiments was as described above.

[3] = assay type: in vivo, male NMRI mice
Description: as §1, §2
2. Development of dependency.
Withdrawal jumps of the mouse (see J. K. Saelens et al., Arch. Int. Pharmacodyn. Ther., 190, 213/1971).
Mice which were dependent upon morphine or other opiates react, when treated with morphine antagonists, with a flight reaction (see F. Huidobro and C. Maggiolo, Arch. Int. Pharmacodyn. Ther., 158, 97/1965); E. L. Way et al., Science, 162, 1290/1968). This flight reaction manifests itself in very vigorous jumping reactions which continue for about 10 minutes. From the number of reacting animals and especially from the jump frequency per animal, there can be deduced the strength of the withdrawal symptoms and thus the degree of dependency upon the test compound. Carrying out of the test:
The test and standard compounds were administered subcutaneously according to the scheme shown in the following Table III in increasing dosages over the course of 2 days.
For the provocation of the withdrawal jumps, the animals received intraperitoneally, 2 hours after the last compound administration, 30 mg./kg. naloxone hydrochloride.
Immediately after the administration of the naloxone, the animals were placed individually in a 5 liter glass beaker. Subsequently, the number of jump movements was recorded during the course of 10 minutes. For evaluation, the number of animals reacting the withdrawal jumps, as well as the average number of jumps per animal, was used.
The animals of the naloxone control group were, up to the administration of naloxone, treated with a 0.9% aqueous solution of sodium chloride (6 animals/dosage group).

[4] = influencing of the amphetamine group toxicity; assay type: in vivo, male NMRI mice; details: amphetamine control group, 15 mg. s.c.
Description: as §1, §2
3. Influencing of the amphetamine group toxicity.
There was investigated the influence of the test compounds on the mortality of amphetamine-treated, aggregated mice. The dosaging of d-amphetamine was 15 mg./kg., which should permit the recognition not only of a synergism but also of an antagonism towards a sympathomimetic compound. Carrying out the experiment:
30 minutes after the subcutaneous administration of the test substance, the animals received subcutaneously 15 mg./kg. of d-amphetamine sulphate. The number of dead animals was recorded after 2, 4 and 7 hours. For the maintenance of the group size, the dead animals were replaced by untreated animals (6 animals/dosage group).

[5] = testing for ataxia (rotating rod test); assay type: in vivo, male NMRI mice
Description: (§6) For the pharmacological investigations described in the following, there were used male NMRI mice with a weight of from 15 to 30 g. The animals were kept under usual laboratory conditions, randomised and subjected to a light-dark change with a 12 hour rhythm. They were given a standard feed and water ad libitum up to the commencement of the experiments.
as §2
There was used the rotating rod test (see F. Gross et al., Schweiz. Med. Wschr., 85, 305/1955).
5 animals per dosage group were trained to keep themselves on a horizontally rotating rod made of synthetic resin (16 rpm). 40, 80 and 120 minutes after the subcutaneous administration of the test compounds, the animals were again tested. From the number of animals which fell off prematurely, there was determined the disturbance of the movement coordination.

[6] = assay type: in vivo, male NMRI mice; remark: listed apart in the source
Description: as §1, §2, §3, §4, §5

[7] = tonus reduction on striated musculature; assay type: in vivo, male NMRI mice; details: 5 mg./kg. s.c.
Description: as §6, §2
6. Tonus reduction on striated musculature.
The test used is described by J. P. Chambon et al. (Arzneimittelforschung (Drug Research), 35 (II), (10), 1572/1985).
5 animals per dosage group were placed with their front paws on a horizontal metal rod (diameter 3 mm., length 20 cm.) which was fixed 30 cm. above a laboratory bench. Mice with normal muscle tonus climbed within 5 seconds on to the rod with at least one rear paw.
40, 80 and 120 minutes after the subcutaneous administration of the test compound, the animals were again tested for this ability and the number of incapable animals was recorded.

## COc1ccc2c3c1O[C@H]1[C@@H](O)C=C[C@H]4[C@@H](C2)N(C)CC[C@@]341 [codeine phosphate, reference compound]
[1]; 50 mg/kg sc
  change with regard to hexabarbital sodium: +51.2 min.
[1]; 50 mg/kg sc, hexobarbital sodium 100 mg./kg. i.p.
  period of narcosis ± SEM: 143.6 ± 10.5 min

## COc1cccc(C2(O)CCCCC2CN(C)C)c1 (stereo not shown) [tramadol, 2-[(dimethylamino)-methyl]-1-(3-methoxyphenyl)-cyclohexanol, reference compound]
[2]; 10 mg/kg s.c.
  change in % (with vs without naloxone): 39.0%
[2]; 20 mg/kg s.c.
  change in % (with vs without naloxone): 30.7%

## COc1cccc(C2(O)CCCCC2CN(C)C)c1 (stereo not shown) [tramadol HCl, reference compound]
[3]; s.c. increasing dosages over 2 days, naloxone i.p., 10 minutes
  % of reacting animals: 83.3%

## CC(N)Cc1ccccc1.O=S(=O)(O)O (stereo not shown) [amphetamine sulphate, reference compound]
[1]; 1.0 mg/kg sc
  change with regard to hexabarbital sodium: -43.2 min
[1]; 1.0 mg/kg sc, hexobarbital sodium 100 mg./kg. i.p.
  period of narcosis ± SEM: 49.2 ± 14.6 min

## CC(N)Cc1ccccc1 (stereo not shown) [amphetamine, reference compound]
[4]
  % of deceased animals after 2 hrs.: 0%
  % of deceased animals after 4 hrs.: 33%
  % of deceased animals after 7 hrs.: 0%
  % of deceased animals, total: 33.3%

## CN1CC[C@]23c4c5ccc(O)c4O[C@H]2[C@@H](O)C=C[C@H]3[C@H]1C5.Cl [morphine HCl, reference compound]
[3]; mouse, in vivo
  % of reacting animals: 100%

## CCC1(c2ccccc2)C(=O)NC(=O)NC1=O [phenobarbital, reference compound]
[5]; 30 mg/kg s.c.
  change of the maintenance time in % compared with the control group, after 40 min.: -29%
  change of the maintenance time in % compared with the control group, after 80 min.: -21%
  change of the maintenance time in % compared with the control group, after 120 min.: -37%
[5]; 50 mg/kg s.c.
  change of the maintenance time in % compared with the control group, after 40 min.: -54%
  change of the maintenance time in % compared with the control group, after 80 min.: -46%
  change of the maintenance time in % compared with the control group, after 120 min.: -42%

## CN1C(=O)NC(=O)C(C)(C2=CCCCC2)C1=O (stereo not shown) [hexobarbital, reference compound]
[1]; hexobarbital alone, 100 mg/kg ip
  period of narcosis ± SEM: 92.4 ± 17.1 min

## CC1CCCC2C3CNCCC12Oc1ccccc13 (stereo not drawn) [Example 12, B/C-trans-1,2,3,4,4a,9a-hexahydro-4-methyl-4a,9-(3-azabutano)-xanthene]
[6]; 25 mg./kg. s.c.
  inhibiting action in writhing test: 24%
[6]; 50 mg./kg. s.c.
  inhibiting action in writhing test: 79%

## CN1C(=O)CN=C(c2ccccc2)c2cc(Cl)ccc21 [diazepam, reference compound]
[7]
  relaxing action: 93%
[5]; 5 mg/kg s.c.
  change of the maintenance time in % compared with the control group, after 40 min.: -87%
  change of the maintenance time in % compared with the control group, after 80 min.: -73%
  change of the maintenance time in % compared with the control group, after 120 min.: -22%
